# Data published in PubChem BioAssay (NCI).
#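 Five compound concentrations were applied to cells in 96-well plates for 48 hours; endpoints were derived by simple linear interpolation of the resulting dose-response curve. TGI is the concentration that stops growth completely.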
# Tests used:
# Experiment in all cases: growth of human tumour cells (NCI), 48 h
# NCI-H23 lung = system: NCI-H23 lung
# EKVX NSCLC = system: EKVX NSCLC
# OVCAR-4 ovarian = system: OVCAR-4 ovarian
# RPMI-8226 leukemia = system: RPMI-8226 leukemia
# RXF 393 renal = system: RXF 393 renal
# HL-60(TB) leukemia = system: HL-60(TB) leukemia
# DU-145 prostate = system: DU-145 prostate
# COLO 205 colon = system: COLO 205 colon
# 786-0 renal = system: 786-0 renal
# SK-OV-3 ovarian = system: SK-OV-3 ovarian
# NCI-H460 lung = system: NCI-H460 lung
# SNB-19 CNS = system: SNB-19 CNS
# SK-MEL-2 melanoma = system: SK-MEL-2 melanoma
# UACC-62 melanoma = system: UACC-62 melanoma
# PC-3 prostate = system: PC-3 prostate
Structure (SMILES),TGI (NCI-H23 lung),TGI (EKVX NSCLC),TGI (OVCAR-4 ovarian),TGI (RPMI-8226 leukemia),TGI (RXF 393 renal),TGI (HL-60(TB) leukemia),TGI (DU-145 prostate),TGI (COLO 205 colon),TGI (786-0 renal),TGI (SK-OV-3 ovarian),TGI (NCI-H460 lung),TGI (SNB-19 CNS),TGI (SK-MEL-2 melanoma),TGI (UACC-62 melanoma),TGI (PC-3 prostate)
Cc1ccc(S[C@@](C=O)(NC(=O)OCc2ccccc2)C(F)(F)F)cc1,39.8 µM,54 µM,> 100 µM,57.2 µM,31.2 µM,41.8 µM,47.4 µM,35.5 µM,47.5 µM,> 100 µM,79.3 µM,62.4 µM,60.8 µM,40.4 µM,54.9 µM
NC1=NC2(COC(c3ccccc3)(c3ccccc3)c3ccccc3)OC(COC(c3ccccc3)(c3ccccc3)c3ccccc3)C(O)C2O1 (stereo not given),> 100 µM,> 100 µM,,52.4 µM,> 100 µM,> 100 µM,> 100 µM,> 100 µM,> 100 µM,> 100 µM,,> 100 µM,85.5 µM,> 100 µM,> 100 µM
Cc1cc(N(CCC#N)CCC#N)ccc1/C(N=Nc1ccccc1)=N\NC(=O)c1cc(Cl)ccc1O,35.1 µM,> 100 µM,65.4 µM,> 100 µM,70.2 µM,> 100 µM,> 100 µM,39.1 µM,70.3 µM,> 100 µM,57.5 µM,> 100 µM,> 100 µM,27.7 µM,> 100 µM
C=CCON(C(=O)OC(C)(C)C)C(C)(C)C,> 100 µM,> 100 µM,> 100 µM,> 100 µM,> 100 µM,> 100 µM,> 100 µM,> 100 µM,> 100 µM,> 100 µM,> 100 µM,> 100 µM,> 100 µM,> 100 µM,> 100 µM
CC(C)(C)OC(=O)N(CCCCNC(=O)C(F)(F)F)CCCNC(=O)C(F)(F)F,> 100 µM,> 100 µM,> 100 µM,> 100 µM,> 100 µM,> 100 µM,> 100 µM,> 100 µM,> 100 µM,> 100 µM,> 100 µM,> 100 µM,> 100 µM,> 100 µM,> 100 µM
C[C@@H](CC(=O)OCc1ccccc1)OC1OC(COC(=O)C(C)(C)C)C(OC(=O)C(C)(C)C)C(OC(=O)C(C)(C)C)C1OC(=O)C(C)(C)C (stereo not given in full),> 100 µM,> 100 µM,> 100 µM,> 100 µM,> 100 µM,> 100 µM,> 100 µM,> 100 µM,> 100 µM,> 100 µM,> 100 µM,> 100 µM,> 100 µM,> 100 µM,> 100 µM
CC1=NN(c2nc(N)nc(C(C)Cl)n2)C(C)(C)C1 (stereo not given),> 100 µM,> 100 µM,> 100 µM,> 100 µM,> 100 µM,> 100 µM,> 100 µM,> 100 µM,> 100 µM,> 100 µM,> 100 µM,> 100 µM,> 100 µM,> 100 µM,> 100 µM
C[C@@H]1CC[C@]2(C)C3(C)CC[C@]2(OC3=O)[C@@]12CC(c1ccoc1)OC2=O (stereo not given in full),> 100 µM,> 100 µM,48.3 µM,77.5 µM,46.9 µM,44.3 µM,> 100 µM,41.4 µM,40.7 µM,> 100 µM,> 100 µM,> 100 µM,> 100 µM,> 100 µM,> 100 µM
Cc1c(C)c2c(c(N)c1C#N)C(=O)N(Cc1ccc(S(N)(=O)=O)cc1)C2=O,> 100 µM,> 100 µM,> 100 µM,> 100 µM,39.3 µM,> 100 µM,> 75.8 µM,> 100 µM,> 56.5 µM,> 100 µM,> 100 µM,38.7 µM,> 100 µM,> 100 µM,> 100 µM
N#Cc1c(NC(=O)C(F)(F)F)sc2c3c(=O)c4ccccc4c(=O)c=3oc3ccccc3c12,38.4 µM,65.4 µM,31.2 µM,56.2 µM,> 63.4 µM,24.6 µM,28.7 µM,32.8 µM,72.2 µM,77.2 µM,36.5 µM,49.5 µM,54.7 µM,26 µM,> 62.2 µM
COc1ccccc1C1c2cc3c(cc2OC2(OC)COC(=O)C12)OCO3 (stereo not given),> 100 µM,> 82.3 µM,> 95.9 µM,28.3 µM,44.2 µM,18.5 µM,69.4 µM,67.3 µM,72.1 µM,70.1 µM,> 100 µM,> 77.6 µM,55.6 µM,60.1 µM,> 92.7 µM
CCN(/C=C1/C(=O)C(c2ccccc2)N(c2ccccc2)C1=O)CC (stereo not given),> 10 µM,> 10 µM,> 10 µM,> 10 µM,> 10 µM,> 10 µM,> 10 µM,> 10 µM,> 10 µM,> 10 µM,> 10 µM,> 10 µM,> 10 µM,> 10 µM,> 10 µM
COc1ccc2nc3c(c(N)c2c1)C1CCC3C1(C)C (stereo not given),> 100 µM,> 100 µM,> 100 µM,58.7 µM,81.5 µM,68.6 µM,> 100 µM,36.2 µM,59.2 µM,> 100 µM,> 100 µM,> 100 µM,67.1 µM,58 µM,> 100 µM
CCN(CC)CCNc1ccc([N+](=O)[O-])c2nc3ccc(OC)cc3c(NCCN(CC)CC)c12,4.38 µM,5.02 µM,3.1 µM,> 4.4 µM,2.59 µM,2.53 µM,> 7.37 µM,1.59 µM,1.56 µM,> 10 µM,1.41 µM,2.78 µM,4.87 µM,> 10 µM,2.1 µM
Cn1c2ccccc2c(=O)c2c(O)cc3c(c21)C1OCC(C)(O)C1O3 (stereo not given),,> 100 µM,> 100 µM,> 100 µM,69 µM,> 100 µM,> 100 µM,> 100 µM,> 100 µM,> 100 µM,,> 100 µM,> 100 µM,,> 100 µM
